The target in assay [1] is human vasopressin V1a receptor (Homo sapiens, UniProt P37288). The experiment in a line: Receptor binding study, [3H]AVP displacement on CHO cell membranes, human V1a. The following applies: [3H]AVP displacement, CHO cell membrane, 25° C., one hour; read-out: Human V1a Ki. In outline:
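Membrane binding in 50 mM Tris-HCl pH 7.4 with MgCl2 and 0.1% BSA, incubated 1 h at 25° C. Bound ligand collected by rapid filtration on glass fiber filters, washed with ice-cold buffer, and counted for radioactivity. Nonspecific binding defined with 1 μM unlabeled AVP.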

Assay [2] addresses human vasopressin V2 receptor (Homo sapiens, UniProt P30518). The experiment in a line: Receptor binding study, [3H]AVP displacement on CHO cell membranes, human V2. The following applies: [3H]AVP displacement, CHO cell membrane, 25° C., one hour; read-out: Human V2 Ki. The procedure, abridged:
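Membranes from CHO cells expressing human V2 receptor incubated with [3H]AVP (0.5-1.0 nM) and test compound at various concentrations in 50 mM Tris-HCl pH 7.4 with MgCl2 and 0.1% BSA, 1 h at 25 °C. Bound radioactivity counted after glass-fibre filtration; nonspecific binding defined with 1 μM unlabelled AVP.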

human vasopressin V1a receptor, sequence (P37288 whole entry): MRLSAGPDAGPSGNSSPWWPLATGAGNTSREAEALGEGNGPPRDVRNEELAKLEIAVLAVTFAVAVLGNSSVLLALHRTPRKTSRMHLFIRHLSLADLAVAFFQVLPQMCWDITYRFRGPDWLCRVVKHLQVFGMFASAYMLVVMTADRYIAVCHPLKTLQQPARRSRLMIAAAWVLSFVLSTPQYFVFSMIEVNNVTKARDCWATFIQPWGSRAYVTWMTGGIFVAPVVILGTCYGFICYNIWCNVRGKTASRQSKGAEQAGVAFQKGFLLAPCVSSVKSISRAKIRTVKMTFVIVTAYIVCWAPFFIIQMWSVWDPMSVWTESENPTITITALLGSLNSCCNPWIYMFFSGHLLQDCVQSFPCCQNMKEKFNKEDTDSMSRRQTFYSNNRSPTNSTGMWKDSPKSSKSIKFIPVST
human vasopressin V2 receptor, sequence (P30518 whole entry): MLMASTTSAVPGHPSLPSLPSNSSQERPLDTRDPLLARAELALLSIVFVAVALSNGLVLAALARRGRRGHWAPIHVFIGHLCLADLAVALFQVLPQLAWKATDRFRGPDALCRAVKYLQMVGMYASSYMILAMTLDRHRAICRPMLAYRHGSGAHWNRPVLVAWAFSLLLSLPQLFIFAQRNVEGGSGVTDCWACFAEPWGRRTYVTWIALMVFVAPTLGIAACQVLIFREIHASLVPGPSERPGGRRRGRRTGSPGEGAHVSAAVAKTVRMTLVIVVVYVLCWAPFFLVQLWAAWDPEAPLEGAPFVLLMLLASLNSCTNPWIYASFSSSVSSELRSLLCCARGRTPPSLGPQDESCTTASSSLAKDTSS

As for `C[C@H]1CCN(C(=O)c2ccc(-c3ccc4[nH]ccc4c3)c(C(=O)OCCN(C)C)c2)c2ccccc2N1` [Example 144, 2-(dimethylamino)ethyl 2-(1H-indol-5-yl)-5-[[(4S)-4-methyl-2,3,4,5-tetrahydro-1H-1,5-benzodiazepin-1-yl]carbonyl]benzoate], the Ki is 0.11 nM in assay [1] and 28 nM in assay [2].

Turning to `CCCN(C)C1CCN(CCOc2cc(C(=O)N3CC[C@H](C)Nc4ccccc43)ccc2-c2ccc3[nH]ccc3c2)CC1` [Example 151, N-[1-[2-[2-(1H-indol-5-yl)-5-[[(4S)-4-methyl-2,3,4,5-tetrahydro-1H-1,5-benzodiazepin-1-yl]carbonyl]phenoxy]ethyl]-4-piperidinyl]-N-methyl-N-propylamine], the Ki in assay [1] worked out at 0.25 nM; in assay [2], 10 nM.

On to `C[C@H]1CCN(C(=O)c2ccc(-c3ccc4[nH]ccc4c3)c(OCCCN3CCC(N)CC3)c2)c2ccccc2N1` [Example 141, 1-[3-[2-(1H-indol-5-yl)-5-[[(4S)-4-methyl-2,3,4,5-tetrahydro-1H-1,5-benzodiazepin-1-yl]carbonyl]phenoxy]propyl]-4-piperidinylamine], for which the values for the Ki in assay [1] and in assay [2] were 0.45 nM and 10 nM, respectively.

Regarding `CC(C)N(C)CCCOc1cc(C(=O)N2CC[C@H](C)Nc3ccccc32)ccc1-c1ccc2[nH]ccc2c1` [Example 85, N-[3-[2-(1H-indol-5-yl)-5-[[(4S)-4-methyl-2,3,4,5-tetrahydro-1H-1,5-benzodiazepin-1-yl]carbonyl]phenoxy]propyl]-N-isopropyl-N-methylamine], the Ki amounted to 0.052 nM in assay [1] and 7.7 nM in assay [2].

For `CCCN1CCC(OC(=O)c2cc(C(=O)N3CC[C@H](C)Nc4ccccc43)ccc2-c2ccc3[nH]ccc3c2)CC1` [Example 138], the Ki came out at 0.23 nM in assay [1] and 34 nM in assay [2].

Regarding `C[C@H]1CCN(C(=O)c2ccc(-c3ccc4[nH]ccc4c3)c(OCCCN3CCOCC3)c2)c2ccccc2N1` [Example 61, (4S)-1-[4-(1H-indol-5-yl)-3-[3-(4-morpholinyl)propoxy]benzoyl]-4-methyl-2,3,4,5-tetrahydro-1H-1,5-benzodiazepine], the values for the Ki in assay [1] and in assay [2] were 0.22 nM and 1.9 nM, respectively.

Regarding `CC(=O)N1CCN(CCCOc2cc(C(=O)N3CC[C@H](C)Nc4ccccc43)ccc2-c2ccc3[nH]ccc3c2)CC1` [Example 73, (4S)-1-[3-[3-(4-acetyl-1-piperazinyl)propoxy]-4-(1H-indol-5-yl)]-4-methyl-2,3,4,5-tetrahydro-1H-1,5-benzodiazepine], the Ki in assay [1] came to 0.19 nM; in assay [2], 4.6 nM.

With `CC(=O)Nc1cc(C(=O)N2CCC(C(C)C)Nc3ccccc32)ccc1-c1ccc2[nH]ccc2c1` (centres unmarked) [Example 7, N-[2-(1H-indol-5-yl)-5-[(4-isopropyl-2,3,4,5-tetrahydro-1H-1,5-benzodiazepin-1-yl)carbonyl]phenyl]acetamide], the results for the Ki in assay [1] and in assay [2] were 0.38 nM and 15 nM, respectively.

`CCCCN1CCN(CCOc2cc(C(=O)N3CC[C@H](C)Nc4ccccc43)ccc2-c2ccc3[nH]ccc3c2)CC1` [Example 148, (4S)-1-[3-[2-(4-butyl-1-piperazinyl)ethoxy]-4-(1H-indol-5-yl)benzoyl]-4-methyl-2,3,4,5-tetrahydro-1H-1,5-benzodiazepine]: the values for the Ki in assay [1] and in assay [2] were 0.23 nM and 9.6 nM, respectively.

For the molecule `C[C@H]1CCN(C(=O)c2ccc(-c3ccc4[nH]ccc4c3)c(N3CCOCC3)c2)c2ccccc2N1` [Example 134, (4S)-1-[4-(1H-indol-5-yl)-3-(4-morpholinyl)benzoyl]-4-methyl-2,3,4,5-tetrahydro-1H-1,5-benzodiazepine], the Ki in assay [1] came out at 0.49 nM; in assay [2], 2.7 nM.

Regarding `C[C@H]1CCN(C(=O)c2ccc(-c3ccc4[nH]ccc4c3)c(C(=O)N3CCN(C)CC3)c2)c2ccccc2N1` [Example 102, (4S)-1-[4-(1H-indol-5-yl)-3-[(4-methyl-1-piperazinyl)carbonyl]benzoyl]-4-methyl-2,3,4,5-tetrahydro-1H-1,5-benzodiazepine], the Ki in assay [1] is 0.25 nM; in assay [2], 61 nM.

In the case of `CCCN(C)CCCOc1cc(C(=O)N2CC[C@H](C)Nc3ccccc32)ccc1-c1ccc(OC)cc1` [Example 131, N-[3-[[4′-methoxy-4-[[(4S)-4-methyl-2,3,4,5-tetrahydro-1H-1,5-benzodiazepin-1-yl]carbonyl][1,1′-biphenyl]-2-yl]oxy]propyl]-N-methyl-N-propylamine], the Ki came to 0.26 nM in assay [1] and 83 nM in assay [2].

With `C[C@H]1CCN(C(=O)c2ccc(-c3ccc(N)cc3)c(OCCN3CCOCC3)c2)c2ccccc2N1` [Example 60, 4′-[[(4S)-4-methyl-2,3,4,5-tetrahydro-1H-1,5-benzodiazepin-1-yl]carbonyl]-2′-[2-(4-morpholinyl)ethoxy][1,1′-biphenyl]-4-amine], the Ki in assay [1] is 0.27 nM; in assay [2], 84 nM.

As for `CC1CCN(C(=O)c2ccc(-c3ccc4[nH]ccc4c3)c(OCCCCCCN)c2)c2ccccc2N1` (centres unmarked) [Example 39, 6-[2-(1H-indol-5-yl)-5-[(4-methyl-2,3,4,5-tetrahydro-1H-1,5-benzodiazepin-1-yl)carbonyl]phenoxy]hexylamine], the Ki was 0.22 nM in assay [1] and 5.2 nM in assay [2].

In the case of `CCCCN(C)CCCOc1cc(C(=O)N2CC[C@H](C)Nc3ccccc32)ccc1-c1ccc2[nH]ccc2c1` [Example 114, N-[3-[2-(1H-indol-5-yl)-5-[[(4S)-4-methyl-2,3,4,5-tetrahydro-1H-1,5-benzodiazepin-1-yl]carbonyl]phenoxy]propyl]-N-methyl-1-butaneamine], the Ki in assay [1] came out at 0.22 nM; in assay [2], 18 nM.

With `CC1CCN(C(=O)c2ccc(-c3ccc4[nH]ccc4c3)c(OCCCNC(=O)CN)c2)c2ccccc2N1` (centres unmarked) [Example 169, 2-amino-N-[3-[2-(1H-indol-5-yl)-5-[(4-methyl-2,3,4,5-tetrahydro-1H-1,5-benzodiazepin-1-yl]carbonyl]phenoxy]propyl]acetamide], the Ki in assay [1] was 0.13 nM; in assay [2] it was 4.9 nM.

For the molecule `CCOC(=O)CC(=O)NCCCOc1cc(C(=O)N2CC[C@H](C)Nc3ccccc32)ccc1-c1ccc2[nH]ccc2c1` [Example 170, ethyl 3-[[3-[2-(1H-indol-5-yl)-5-[[(4S)-4-methyl-2,3,4,5-tetrahydro-1H-1,5-benzodiazepin-1-yl]carbonyl]phenoxy]propyl]amino]-3-oxopropanoate], the Ki turned out to be 0.37 nM in assay [1] and 2.6 nM in assay [2].

With `C[C@H]1CCN(C(=O)c2ccc(-c3ccc4[nH]ccc4c3)c(C(=O)OCCCN3CCN(C)CC3)c2)c2ccccc2N1` [Example 136, 3-(4-methyl-1-piperazinyl)propyl 2-(1H-indol-5-yl)-5-[[(4S)-4-methyl-2,3,4,5-tetrahydro-1H-1,5-benzodiazepin-1-yl]carbonyl]benzoate], the Ki in assay [1] turned out to be 0.23 nM; in assay [2], 16 nM.

`C[C@H]1CCN(C(=O)c2ccc(-c3ccc4[nH]ccc4c3)c(OCCCN3CCC(N4CCOCC4)CC3)c2)c2ccccc2N1` [Example 107, (4S)-1-[4-(1H-indol-5-yl)-3-[3-[4-(4-morpholinyl)-1-piperidinyl]propoxy]benzoyl]-4-methyl-2,3,4,5-tetrahydro-1H-1,5-benzodiazepine]: the figures for the Ki in assay [1] and in assay [2] were 0.13 nM and 33 nM, respectively.

In general, Ki refers to the dissociation constant of the complex between target and ligand, obtained from inhibition or displacement.

For the origin of these results see patent publication US20080076760A1, “2,3,4,5-TETRAHYDRO-1H-1,5-BENZODIAZEPINE DERIVATIVE AND MEDICINAL COMPOSITION” (priority 2004, published 2008).
